Experimental data from PubChem BioAssay (NCI).
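Cultured in 96-well plates, cells were exposed to test compound for 48 hours across five concentrations. Definition used: TGI = concentration required for complete inhibition of growth.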

Key:
Assay in all cases: growth of human tumour cells (NCI), 48 h
CCRF-CEM leukemia = tested on: CCRF-CEM leukemia
RPMI-8226 leukemia = tested on: RPMI-8226 leukemia
KM12 colon = tested on: KM12 colon
DU-145 prostate = tested on: DU-145 prostate
UACC-62 melanoma = tested on: UACC-62 melanoma
SK-MEL-28 melanoma = tested on: SK-MEL-28 melanoma
EKVX NSCLC = tested on: EKVX NSCLC
ACHN renal = tested on: ACHN renal
K-562 leukemia = tested on: K-562 leukemia
U251 CNS = tested on: U251 CNS
TK-10 renal = tested on: TK-10 renal
HOP-62 NSCLC = tested on: HOP-62 NSCLC
NCI-H23 lung = tested on: NCI-H23 lung
NCI-H522 lung = tested on: NCI-H522 lung
OVCAR-3 ovarian = tested on: OVCAR-3 ovarian
SK-MEL-5 melanoma = tested on: SK-MEL-5 melanoma
SR leukemia = tested on: SR leukemia
A549 NSCLC = tested on: A549 NSCLC
SNB-75 CNS = tested on: SNB-75 CNS
786-0 renal = tested on: 786-0 renal
NCI-H460 lung = tested on: NCI-H460 lung
SK-MEL-2 melanoma = tested on: SK-MEL-2 melanoma
IGROV1 ovarian = tested on: IGROV1 ovarian
HS 578T breast = tested on: HS 578T breast
UACC-257 melanoma = tested on: UACC-257 melanoma
SF-268 CNS = tested on: SF-268 CNS
HT29 colon = tested on: HT29 colon
SK-OV-3 ovarian = tested on: SK-OV-3 ovarian
UO-31 renal = tested on: UO-31 renal
M14 melanoma = tested on: M14 melanoma
MDA-N = tested on: MDA-N
SN12C renal = tested on: SN12C renal
PC-3 prostate = tested on: PC-3 prostate
SF-295 CNS = tested on: SF-295 CNS
BT-549 breast = tested on: BT-549 breast
OVCAR-5 ovarian = tested on: OVCAR-5 ovarian
T-47D breast = tested on: T-47D breast
HCT-15 colon = tested on: HCT-15 colon
HCT-116 colon = tested on: HCT-116 colon
RXF 393 renal = tested on: RXF 393 renal
HCC-2998 colon = tested on: HCC-2998 colon
MCF7 breast = tested on: MCF7 breast
OVCAR-4 ovarian = tested on: OVCAR-4 ovarian
HL-60(TB) leukemia = tested on: HL-60(TB) leukemia
SW-620 colon = tested on: SW-620 colon
OVCAR-8 ovarian = tested on: OVCAR-8 ovarian
NCI/ADR-RES ovarian = tested on: NCI/ADR-RES ovarian
LOX IMVI melanoma = tested on: LOX IMVI melanoma
MOLT-4 leukemia = tested on: MOLT-4 leukemia
CAKI-1 renal = tested on: CAKI-1 renal
COLO 205 colon = tested on: COLO 205 colon
A498 renal = tested on: A498 renal
SF-539 CNS = tested on: SF-539 CNS
HOP-92 NSCLC = tested on: HOP-92 NSCLC
SNB-19 CNS = tested on: SNB-19 CNS
MDA-MB-231 breast = tested on: MDA-MB-231 breast
NCI-H226 lung = tested on: NCI-H226 lung
MDA-MB-435 = tested on: MDA-MB-435
MALME-3M melanoma = tested on: MALME-3M melanoma

SMILES: C[C@H](CCC(=O)O[C@@H]1CC[C@@]2(C)C(CC[C@H]3[C@@H]4CC[C@H]([C@H](C)CCc5nc6ccccc6[nH]5)[C@@]4(C)CC[C@@H]32)C1)[C@H]1CC[C@H]2[C@@H]3CCC4C[C@H](O)CC[C@]4(C)[C@H]3CC[C@]12C (some centres not stated)
- TGI (CCRF-CEM leukemia): > 100 µM
- TGI (RPMI-8226 leukemia): > 100 µM
- TGI (KM12 colon): > 100 µM
- TGI (DU-145 prostate): > 100 µM
- TGI (UACC-62 melanoma): > 100 µM
- TGI (SK-MEL-28 melanoma): > 100 µM
- TGI (EKVX NSCLC): > 100 µM
- TGI (ACHN renal): > 100 µM
- TGI (K-562 leukemia): > 100 µM
- TGI (U251 CNS): > 100 µM
- TGI (TK-10 renal): > 100 µM
- TGI (HOP-62 NSCLC): > 100 µM
- TGI (NCI-H23 lung): > 100 µM
- TGI (NCI-H522 lung): > 100 µM
- TGI (OVCAR-3 ovarian): > 100 µM
- TGI (SK-MEL-5 melanoma): > 100 µM
- TGI (SR leukemia): > 100 µM
- TGI (A549 NSCLC): > 100 µM
- TGI (SNB-75 CNS): > 100 µM
- TGI (786-0 renal): > 100 µM
- TGI (NCI-H460 lung): > 100 µM
- TGI (SK-MEL-2 melanoma): > 100 µM
- TGI (IGROV1 ovarian): > 100 µM
- TGI (HS 578T breast): > 100 µM
- TGI (UACC-257 melanoma): > 100 µM
- TGI (SF-268 CNS): > 100 µM
- TGI (HT29 colon): > 100 µM
- TGI (SK-OV-3 ovarian): > 100 µM
- TGI (UO-31 renal): > 100 µM
- TGI (M14 melanoma): > 100 µM
- TGI (MDA-N): > 100 µM
- TGI (SN12C renal): > 100 µM
- TGI (PC-3 prostate): > 100 µM
- TGI (SF-295 CNS): > 100 µM
- TGI (BT-549 breast): > 100 µM
- TGI (OVCAR-5 ovarian): > 100 µM
- TGI (T-47D breast): > 100 µM
- TGI (HCT-15 colon): > 100 µM
- TGI (HCT-116 colon): > 100 µM
- TGI (RXF 393 renal): > 100 µM
- TGI (HCC-2998 colon): > 100 µM
- TGI (MCF7 breast): > 100 µM
- TGI (OVCAR-4 ovarian): > 100 µM
- TGI (HL-60(TB) leukemia): > 100 µM
- TGI (SW-620 colon): > 100 µM
- TGI (OVCAR-8 ovarian): > 100 µM
- TGI (NCI/ADR-RES ovarian): > 100 µM
- TGI (LOX IMVI melanoma): > 100 µM
- TGI (MOLT-4 leukemia): > 100 µM
- TGI (CAKI-1 renal): > 100 µM
- TGI (COLO 205 colon): > 100 µM
- TGI (A498 renal): > 100 µM
- TGI (SF-539 CNS): > 100 µM
- TGI (HOP-92 NSCLC): > 100 µM
- TGI (SNB-19 CNS): 61.2 µM
- TGI (MDA-MB-231 breast): > 100 µM
- TGI (NCI-H226 lung): > 100 µM
- TGI (MDA-MB-435): > 100 µM

SMILES: Cn1c(=O)nc2n(CCO)ccnc-2c1=O
- TGI (CCRF-CEM leukemia): > 100 µM
- TGI (RPMI-8226 leukemia): > 100 µM
- TGI (KM12 colon): > 100 µM
- TGI (DU-145 prostate): > 100 µM
- TGI (UACC-62 melanoma): > 100 µM
- TGI (SK-MEL-28 melanoma): > 100 µM
- TGI (EKVX NSCLC): > 100 µM
- TGI (ACHN renal): > 100 µM
- TGI (K-562 leukemia): > 100 µM
- TGI (U251 CNS): > 100 µM
- TGI (TK-10 renal): > 100 µM
- TGI (HOP-62 NSCLC): > 100 µM
- TGI (NCI-H23 lung): > 100 µM
- TGI (NCI-H522 lung): > 100 µM
- TGI (OVCAR-3 ovarian): > 100 µM
- TGI (SK-MEL-5 melanoma): > 100 µM
- TGI (SR leukemia): > 100 µM
- TGI (A549 NSCLC): > 100 µM
- TGI (SNB-75 CNS): > 100 µM
- TGI (786-0 renal): > 100 µM
- TGI (NCI-H460 lung): > 100 µM
- TGI (MALME-3M melanoma): > 100 µM
- TGI (SK-MEL-2 melanoma): > 100 µM
- TGI (IGROV1 ovarian): > 100 µM
- TGI (HS 578T breast): > 100 µM
- TGI (UACC-257 melanoma): > 100 µM
- TGI (SF-268 CNS): > 100 µM
- TGI (HT29 colon): > 100 µM
- TGI (UO-31 renal): > 100 µM
- TGI (M14 melanoma): > 100 µM
- TGI (MDA-N): > 100 µM
- TGI (SN12C renal): > 100 µM
- TGI (PC-3 prostate): > 100 µM
- TGI (SF-295 CNS): > 100 µM
- TGI (BT-549 breast): > 100 µM
- TGI (OVCAR-5 ovarian): > 100 µM
- TGI (T-47D breast): > 100 µM
- TGI (HCT-15 colon): > 100 µM
- TGI (HCT-116 colon): > 100 µM
- TGI (RXF 393 renal): > 100 µM
- TGI (HCC-2998 colon): > 100 µM
- TGI (MCF7 breast): > 100 µM
- TGI (OVCAR-4 ovarian): > 100 µM
- TGI (SW-620 colon): > 100 µM
- TGI (OVCAR-8 ovarian): > 100 µM
- TGI (NCI/ADR-RES ovarian): > 100 µM
- TGI (LOX IMVI melanoma): > 100 µM
- TGI (MOLT-4 leukemia): > 100 µM
- TGI (CAKI-1 renal): > 100 µM
- TGI (COLO 205 colon): > 100 µM
- TGI (A498 renal): > 100 µM
- TGI (SF-539 CNS): > 100 µM
- TGI (HOP-92 NSCLC): > 100 µM
- TGI (SNB-19 CNS): > 100 µM
- TGI (MDA-MB-231 breast): > 100 µM
- TGI (NCI-H226 lung): > 100 µM
- TGI (MDA-MB-435): > 100 µM

SMILES: CN(C)CCCc1cccnc1
- TGI (CCRF-CEM leukemia): > 100 µM
- TGI (RPMI-8226 leukemia): > 100 µM
- TGI (KM12 colon): > 100 µM
- TGI (DU-145 prostate): > 100 µM
- TGI (UACC-62 melanoma): > 100 µM
- TGI (SK-MEL-28 melanoma): > 100 µM
- TGI (EKVX NSCLC): > 100 µM
- TGI (ACHN renal): > 100 µM
- TGI (K-562 leukemia): > 100 µM
- TGI (U251 CNS): > 100 µM
- TGI (TK-10 renal): > 100 µM
- TGI (HOP-62 NSCLC): > 100 µM
- TGI (NCI-H23 lung): > 100 µM
- TGI (NCI-H522 lung): > 100 µM
- TGI (OVCAR-3 ovarian): > 100 µM
- TGI (SK-MEL-5 melanoma): > 100 µM
- TGI (SR leukemia): > 100 µM
- TGI (A549 NSCLC): > 100 µM
- TGI (SNB-75 CNS): > 100 µM
- TGI (786-0 renal): > 100 µM
- TGI (NCI-H460 lung): > 100 µM
- TGI (MALME-3M melanoma): > 100 µM
- TGI (SK-MEL-2 melanoma): > 100 µM
- TGI (IGROV1 ovarian): > 100 µM
- TGI (HS 578T breast): > 100 µM
- TGI (UACC-257 melanoma): > 100 µM
- TGI (SF-268 CNS): > 100 µM
- TGI (HT29 colon): > 100 µM
- TGI (SK-OV-3 ovarian): > 100 µM
- TGI (UO-31 renal): > 100 µM
- TGI (M14 melanoma): > 100 µM
- TGI (MDA-N): > 100 µM
- TGI (SN12C renal): > 100 µM
- TGI (PC-3 prostate): > 100 µM
- TGI (SF-295 CNS): > 100 µM
- TGI (BT-549 breast): > 100 µM
- TGI (OVCAR-5 ovarian): > 100 µM
- TGI (T-47D breast): > 100 µM
- TGI (HCT-15 colon): > 100 µM
- TGI (HCT-116 colon): > 100 µM
- TGI (RXF 393 renal): > 100 µM
- TGI (HCC-2998 colon): > 100 µM
- TGI (MCF7 breast): > 100 µM
- TGI (OVCAR-4 ovarian): > 100 µM
- TGI (HL-60(TB) leukemia): > 100 µM
- TGI (SW-620 colon): > 100 µM
- TGI (OVCAR-8 ovarian): > 100 µM
- TGI (NCI/ADR-RES ovarian): > 100 µM
- TGI (LOX IMVI melanoma): > 100 µM
- TGI (CAKI-1 renal): > 100 µM
- TGI (COLO 205 colon): > 100 µM
- TGI (A498 renal): > 100 µM
- TGI (HOP-92 NSCLC): > 100 µM
- TGI (SNB-19 CNS): > 100 µM
- TGI (MDA-MB-231 breast): > 100 µM
- TGI (NCI-H226 lung): > 100 µM
- TGI (MDA-MB-435): > 100 µM
